The text below walks through data of ChEMBL document CHEMBL3991601, “The target landscape of clinical kinase drugs” (Science, 2017).

Test [1] has as its target T1, Serine/threonine-protein kinase A-Raf (Homo sapiens, UniProt P10398).
T1 sequence (P10398 whole entry): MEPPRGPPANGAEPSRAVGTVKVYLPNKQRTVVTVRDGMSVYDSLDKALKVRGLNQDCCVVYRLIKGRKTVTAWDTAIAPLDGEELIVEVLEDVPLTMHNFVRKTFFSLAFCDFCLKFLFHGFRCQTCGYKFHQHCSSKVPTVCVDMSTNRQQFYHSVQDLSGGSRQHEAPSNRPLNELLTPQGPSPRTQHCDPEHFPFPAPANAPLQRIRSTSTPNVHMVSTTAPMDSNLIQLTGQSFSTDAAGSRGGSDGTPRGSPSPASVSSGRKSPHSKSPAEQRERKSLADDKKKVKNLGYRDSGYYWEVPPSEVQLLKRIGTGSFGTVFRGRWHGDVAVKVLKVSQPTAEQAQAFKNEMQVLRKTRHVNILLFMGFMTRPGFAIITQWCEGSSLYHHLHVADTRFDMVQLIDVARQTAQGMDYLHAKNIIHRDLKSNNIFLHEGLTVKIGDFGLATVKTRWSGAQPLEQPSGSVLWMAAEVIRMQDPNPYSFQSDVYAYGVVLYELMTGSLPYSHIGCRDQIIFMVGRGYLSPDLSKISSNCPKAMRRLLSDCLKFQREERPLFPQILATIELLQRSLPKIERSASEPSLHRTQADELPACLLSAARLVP

Test [2] has as its target Cyclin-dependent kinase 1 (Homo sapiens, UniProt P06493).
Test [3] deals with Casein kinase I isoform gamma-1 (Homo sapiens, UniProt Q9HCP0).
Sequence of Casein kinase I isoform gamma-1 (Q9HCP0 whole entry, canonical isoform): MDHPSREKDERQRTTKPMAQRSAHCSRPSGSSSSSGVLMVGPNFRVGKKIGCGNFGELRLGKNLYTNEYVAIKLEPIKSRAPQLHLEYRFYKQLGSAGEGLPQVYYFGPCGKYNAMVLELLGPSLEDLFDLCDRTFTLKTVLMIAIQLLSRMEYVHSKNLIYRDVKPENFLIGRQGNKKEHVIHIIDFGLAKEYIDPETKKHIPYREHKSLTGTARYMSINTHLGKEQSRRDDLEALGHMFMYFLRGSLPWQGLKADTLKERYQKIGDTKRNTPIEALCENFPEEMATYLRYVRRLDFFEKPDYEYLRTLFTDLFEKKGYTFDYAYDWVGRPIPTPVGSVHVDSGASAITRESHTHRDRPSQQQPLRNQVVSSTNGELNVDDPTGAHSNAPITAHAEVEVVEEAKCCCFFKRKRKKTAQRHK
A further test concerns the target Deoxycytidine kinase (Homo sapiens, UniProt P27707).
Test [4] has as its target T2, Mitogen-activated protein kinase kinase kinase 2 (Homo sapiens, UniProt Q9Y2U5).
T2 sequence (Q9Y2U5 whole entry): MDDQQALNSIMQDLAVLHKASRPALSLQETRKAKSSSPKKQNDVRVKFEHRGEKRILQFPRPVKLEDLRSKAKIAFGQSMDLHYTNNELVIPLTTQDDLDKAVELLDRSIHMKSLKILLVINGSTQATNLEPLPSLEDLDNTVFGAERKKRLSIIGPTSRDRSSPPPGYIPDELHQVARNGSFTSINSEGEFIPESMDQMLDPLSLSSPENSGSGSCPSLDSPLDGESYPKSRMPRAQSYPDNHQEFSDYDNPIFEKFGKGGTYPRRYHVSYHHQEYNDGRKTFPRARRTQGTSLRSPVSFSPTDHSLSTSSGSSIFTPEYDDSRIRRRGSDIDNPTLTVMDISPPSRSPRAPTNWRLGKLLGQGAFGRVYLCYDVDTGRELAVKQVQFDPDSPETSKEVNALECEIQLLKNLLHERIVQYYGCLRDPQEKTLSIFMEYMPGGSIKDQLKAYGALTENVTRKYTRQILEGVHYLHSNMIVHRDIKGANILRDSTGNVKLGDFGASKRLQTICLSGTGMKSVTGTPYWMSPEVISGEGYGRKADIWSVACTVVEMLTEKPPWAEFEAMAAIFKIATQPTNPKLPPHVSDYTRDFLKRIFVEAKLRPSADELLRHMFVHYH

The target of test [5] is Mitogen-activated protein kinase kinase kinase kinase 4 (Homo sapiens, UniProt O95819).
Sequence of Mitogen-activated protein kinase kinase kinase kinase 4 (O95819 whole entry): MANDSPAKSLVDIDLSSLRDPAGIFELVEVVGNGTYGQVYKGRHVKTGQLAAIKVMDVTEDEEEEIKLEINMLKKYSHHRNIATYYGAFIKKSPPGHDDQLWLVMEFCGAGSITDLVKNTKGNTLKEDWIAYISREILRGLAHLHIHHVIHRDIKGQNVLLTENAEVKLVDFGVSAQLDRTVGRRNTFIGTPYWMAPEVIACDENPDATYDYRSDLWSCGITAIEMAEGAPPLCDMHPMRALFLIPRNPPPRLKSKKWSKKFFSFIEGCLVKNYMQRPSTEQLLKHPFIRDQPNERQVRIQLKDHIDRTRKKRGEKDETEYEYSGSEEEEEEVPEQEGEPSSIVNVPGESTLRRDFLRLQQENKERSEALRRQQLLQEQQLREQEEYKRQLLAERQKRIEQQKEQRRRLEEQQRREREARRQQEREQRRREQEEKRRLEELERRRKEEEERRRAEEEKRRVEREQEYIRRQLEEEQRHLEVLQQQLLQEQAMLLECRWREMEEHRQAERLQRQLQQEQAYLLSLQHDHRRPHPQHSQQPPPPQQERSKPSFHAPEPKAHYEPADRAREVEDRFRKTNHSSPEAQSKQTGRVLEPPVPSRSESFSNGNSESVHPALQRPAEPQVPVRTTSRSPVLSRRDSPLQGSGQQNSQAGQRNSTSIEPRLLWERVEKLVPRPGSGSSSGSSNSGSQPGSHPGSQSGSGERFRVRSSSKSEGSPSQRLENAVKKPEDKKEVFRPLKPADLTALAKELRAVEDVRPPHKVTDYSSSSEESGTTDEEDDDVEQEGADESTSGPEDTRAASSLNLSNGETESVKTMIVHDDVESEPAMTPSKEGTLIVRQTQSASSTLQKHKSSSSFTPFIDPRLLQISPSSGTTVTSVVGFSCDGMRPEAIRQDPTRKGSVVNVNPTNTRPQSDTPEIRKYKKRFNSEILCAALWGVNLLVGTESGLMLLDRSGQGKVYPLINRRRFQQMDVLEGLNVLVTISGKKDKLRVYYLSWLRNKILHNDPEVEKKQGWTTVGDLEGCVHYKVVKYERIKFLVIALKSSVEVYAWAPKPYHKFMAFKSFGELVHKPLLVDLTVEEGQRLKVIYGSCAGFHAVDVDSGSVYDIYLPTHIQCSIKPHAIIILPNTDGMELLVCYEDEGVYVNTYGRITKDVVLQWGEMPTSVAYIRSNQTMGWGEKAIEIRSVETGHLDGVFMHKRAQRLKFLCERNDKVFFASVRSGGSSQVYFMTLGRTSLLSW
Test [6] concerns the target T3, Serine/threonine-protein kinase Nek3 (Homo sapiens, UniProt P51956).
T3 sequence (P51956 whole entry): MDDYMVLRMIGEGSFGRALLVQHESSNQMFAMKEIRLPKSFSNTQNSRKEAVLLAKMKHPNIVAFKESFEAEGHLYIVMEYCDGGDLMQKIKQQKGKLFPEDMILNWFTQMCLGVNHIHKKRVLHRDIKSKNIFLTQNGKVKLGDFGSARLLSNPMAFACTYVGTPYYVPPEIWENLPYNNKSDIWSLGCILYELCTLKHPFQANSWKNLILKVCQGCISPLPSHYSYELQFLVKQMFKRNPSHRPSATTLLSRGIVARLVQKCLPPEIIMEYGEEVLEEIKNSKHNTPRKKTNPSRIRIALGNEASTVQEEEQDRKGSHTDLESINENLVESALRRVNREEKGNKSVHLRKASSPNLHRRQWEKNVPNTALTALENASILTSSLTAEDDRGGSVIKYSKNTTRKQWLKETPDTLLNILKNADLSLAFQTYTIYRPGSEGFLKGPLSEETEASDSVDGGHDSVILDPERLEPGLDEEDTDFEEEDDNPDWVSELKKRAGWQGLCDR

For test [7], the target named is T4, Serine/threonine-protein kinase TBK1 (Homo sapiens, UniProt Q9UHD2).
T4 sequence (Q9UHD2 whole entry): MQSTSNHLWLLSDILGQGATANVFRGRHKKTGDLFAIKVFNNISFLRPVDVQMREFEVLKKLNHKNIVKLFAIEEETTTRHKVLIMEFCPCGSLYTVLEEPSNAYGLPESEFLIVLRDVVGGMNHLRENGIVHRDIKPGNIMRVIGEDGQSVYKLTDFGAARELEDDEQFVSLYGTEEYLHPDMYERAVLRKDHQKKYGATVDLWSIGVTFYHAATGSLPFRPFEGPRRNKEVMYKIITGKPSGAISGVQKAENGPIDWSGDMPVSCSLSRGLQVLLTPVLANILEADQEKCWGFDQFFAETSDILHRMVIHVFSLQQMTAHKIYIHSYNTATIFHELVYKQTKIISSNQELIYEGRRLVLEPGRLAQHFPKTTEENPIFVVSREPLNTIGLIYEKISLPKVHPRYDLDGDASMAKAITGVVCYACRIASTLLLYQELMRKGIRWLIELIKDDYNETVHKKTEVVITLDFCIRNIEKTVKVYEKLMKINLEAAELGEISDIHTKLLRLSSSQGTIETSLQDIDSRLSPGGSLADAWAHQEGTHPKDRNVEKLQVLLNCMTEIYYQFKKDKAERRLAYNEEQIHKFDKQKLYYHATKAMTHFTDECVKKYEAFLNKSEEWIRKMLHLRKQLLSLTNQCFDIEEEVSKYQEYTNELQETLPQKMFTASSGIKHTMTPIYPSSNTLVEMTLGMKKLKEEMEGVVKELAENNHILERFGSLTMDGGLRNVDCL

Activity calls are given as the source filed them. Cut-off read from the data, not from the text of the source, for most assays here: actives have a measured Kd and inactives only a lower limit.
Note: in the data inactive means no Kd found up to 30 µM.

Sequence of Cyclin-dependent kinase 1 (P06493 whole entry, canonical isoform): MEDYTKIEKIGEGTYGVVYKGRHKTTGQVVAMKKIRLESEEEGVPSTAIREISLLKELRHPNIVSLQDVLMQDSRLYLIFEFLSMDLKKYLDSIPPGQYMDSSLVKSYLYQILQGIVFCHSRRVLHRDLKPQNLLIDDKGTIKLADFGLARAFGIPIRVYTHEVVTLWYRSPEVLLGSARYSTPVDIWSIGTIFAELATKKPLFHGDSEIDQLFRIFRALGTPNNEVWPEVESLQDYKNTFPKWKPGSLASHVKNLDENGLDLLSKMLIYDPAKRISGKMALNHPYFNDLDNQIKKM
Sequence of Deoxycytidine kinase (P27707 whole entry): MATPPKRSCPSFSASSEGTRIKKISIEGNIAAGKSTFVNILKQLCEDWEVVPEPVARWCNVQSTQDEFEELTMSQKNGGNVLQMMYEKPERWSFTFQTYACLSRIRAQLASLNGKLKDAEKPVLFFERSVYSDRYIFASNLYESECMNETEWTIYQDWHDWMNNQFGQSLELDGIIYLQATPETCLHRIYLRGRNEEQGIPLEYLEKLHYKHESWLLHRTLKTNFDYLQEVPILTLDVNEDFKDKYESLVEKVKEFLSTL

Regarding `COc1cc2ncnc3c2cc1OCCCCCN(C)Cc1ccc(Br)cc1N3` [JNJ-26483327], the Kd (in test [1]; in test [2]; in test [3]; on Deoxycytidine kinase; in test [4]; in test [5]) was > 30 µM (inactive) each time. For the same compound, the Kd in test [6] and in test [7] was > 30 µM (inactive) throughout.
Consider `FC(F)(F)c1ccc(CNc2ccc(Cc3c[nH]c4ncc(Cl)cc34)cn2)cn1` [PEXIDARTINIB], for which the Kd (in test [1]; in test [2]; in test [3]; at Deoxycytidine kinase; in test [4]; in test [5]) was > 30 µM (inactive) in each case. The Kd in test [6] and in test [7] was > 30 µM (inactive) each time.
Take `COc1ccc2c(OCc3nnc4ccc(-c5ccccc5)nn34)ccnc2c1` [AMG-208]: the Kd (in test [1]; in test [2]; in test [3]; at Deoxycytidine kinase; in test [4]; in test [5]) was > 30 µM (inactive) in each case. For the same compound, the Kd in test [6] and in test [7] was > 30 µM (inactive) throughout.
Take `Cc1cc(-c2cc(OC(=O)c3ccccc3)ccc2Cl)cc2nnc(Nc3ccc(OCCN4CCCC4)cc3)nc12` [TG100-801]: the Kd (in test [1]; in test [2]; in test [3]; at Deoxycytidine kinase; in test [4]; in test [5]) was > 30 µM (inactive) throughout. The Kd in test [6] and in test [7] was > 30 µM (inactive) each time.
Regarding `O=C(NC[C@H](O)CO)c1ccncc1Nc1ccc(I)cc1F` [PIMASERTIB], the Kd (in test [1]; in test [2]; in test [3]; at Deoxycytidine kinase; in test [4]; in test [5]) was > 30 µM (inactive) throughout. Also, the Kd in test [6] and in test [7] was > 30 µM (inactive) in each case.
Regarding `c1cc(OCCN2CCCCC2)cc(-c2n[nH]c3ccc(-c4nc[nH]n4)cc23)c1` [CC-401], the Kd in test [1] was > 30 µM (inactive); in test [2], > 30 µM (inactive); in test [3] it was 0.282 µM (active); on Deoxycytidine kinase it was > 30 µM (inactive); in test [4], > 30 µM (inactive); in test [5] it was 4.17 µM (active). The Kd in test [6] and in test [7] was > 30 µM (inactive) each time.
With `NC(=O)c1ccc(N(C(N)=O)c2c(F)cccc2F)nc1-c1ccc(F)cc1F` [VX-702], the Kd (in test [1]; in test [2]; in test [3]; on Deoxycytidine kinase; in test [4]; in test [5]) was > 30 µM (inactive) in each case. Further, the Kd in test [6] and in test [7] was > 30 µM (inactive) each time.
Consider `CC[C@@](C)(Nc1ccnc(-c2c[nH]c3ncccc23)n1)C(=O)NCC(F)(F)F` [DECERNOTINIB], for which the Kd in test [1] was > 30 µM (inactive); in test [2], > 30 µM (inactive); in test [3] it was > 30 µM (inactive); on Deoxycytidine kinase, > 30 µM (inactive); in test [4], 4.45 µM (active); in test [5], > 30 µM (inactive). For the same compound, the Kd in test [6] and in test [7] was > 30 µM (inactive) in each case.
As for `CC(C)(O)CC(=O)NCCn1ccc2ncnc(Nc3ccc(Oc4cccc(C(F)(F)F)c4)c(Cl)c3)c21` [TAK-285], the Kd (in test [1]; in test [2]; in test [3]; at Deoxycytidine kinase; in test [4]; in test [5]) was > 30 µM (inactive) in each case. Besides, the Kd in test [6] and in test [7] was > 30 µM (inactive) throughout.
Regarding `COc1cc2ncnc(Nc3ccc(O)cc3)c2cc1OC` [WHI-P131], the Kd (in test [1]; in test [2]; in test [3]; on Deoxycytidine kinase; in test [4]; in test [5]) was > 30 µM (inactive) each time. In addition, the Kd in test [6] and in test [7] was > 30 µM (inactive) each time.
Regarding `CNC(=O)c1cc(COc2nnc(Nc3ccc(Cl)cc3)c3ccoc23)ccn1` [TELATINIB], the Kd (in test [1]; in test [2]; in test [3]; at Deoxycytidine kinase; in test [4]; in test [5]) was > 30 µM (inactive) each time. Further, the Kd in test [6] and in test [7] was > 30 µM (inactive) in each case.
On to `COc1cccc(Nc2ncnn3ccc(CN4CC[C@@H](N)[C@H](O)C4)c23)c1` [BMS-690514], for which the Kd is > 30 µM (inactive) in test [1]; > 30 µM (inactive) in test [2]; > 30 µM (inactive) in test [3]; > 30 µM (inactive) on Deoxycytidine kinase; 1.05 µM (active) in test [4]; > 30 µM (inactive) in test [5]. Also, the Kd in test [6] and in test [7] was > 30 µM (inactive) in each case.
As to `COc1cc(F)c(F)c(Nc2ccc(I)cc2F)c1NS(=O)(=O)C1(C[C@H](O)CO)CC1` [REFAMETINIB], the Kd (in test [1]; in test [2]; in test [3]; at Deoxycytidine kinase; in test [4]; in test [5]) was > 30 µM (inactive) in each case. Also, the Kd in test [6] and in test [7] was > 30 µM (inactive) in each case.

For orientation: Kd means a measure of binding affinity in units of concentration.
